# Source: patent US20100068812A1, “METHOD FOR INCREASING TRANSFORMATION EFFICIENCY IN PLANTS, COMPRISING COCULTURE STEP FOR CULTURING PLANT TISSUE WITH COCULTURE MEDIUM CONTAINING 3, 6-DICHLORO-O-ANISIC ACID” (Japan Tobacco Inc., priority 2007, published 2010)
# Key:
# [1] = test system: Maize (variety: A188) immature embryos; test: Effect of auxin type in coculture medium on Agrobacterium-mediated transformation efficiency (GUS-positive plants / inoculated immature embryos); assay type: cell-based; conditions: for transformation efficiency relative to control (2,4-D), in words / transformation efficiency: auxin 1.5 mg/l in coculture medium, Agrobacterium LBA4404 (pSB131); for transformation efficiency: coculture in the dark at 25° C. for 7 days, 33 to 35 immature embryos per test
# Text: (§1) Transformation efficiency can be determined by any calculation method commonly used by those skilled in the art, for example, can be determined from a value calculated by dividing the number of transformed plants by the number of Agrobacterium-inoculated explants.
# FIG. 1 is a graph showing the effect of auxin type in a coculture medium on transformation efficiency in maize. 33 to 35 immature embryos were provided for each test. The vertical axis represents the transformation efficiency (calculated by dividing the number of GUS-positive plants obtained in each test by the number of inoculated immature embryos), while the horizontal axis represents the type of auxin contained in the coculture medium. The auxin concentration in the coculture medium was set to 1.5 mg/l for each test.
# Maize (variety: A188) immature embryos (1.0 to 1.5 mm in size) at 7 to 14 days after pollination were aseptically collected and washed once with LS-inf liquid medium (Non-patent Publication No. 11), followed by pretreatment (thermal treatment at 46° C. for 3 minutes and centrifugation at 15,000 rpm for 10 minutes) to increase gene transfer efficiency. In LS-inf liquid medium containing 100 μM acetosyringone, Agrobacterium strain LBA4404 (pSB131) (Non-patent Publication No. 11) was suspended at about 1.0×10^9 cfu/ml to prepare an inoculum. The thermally-treated and centrifuged immature embryos were mixed with the inoculum, vortexed for 30 seconds, and then allowed to stand for 5 minutes at room temperature. The Agrobacterium-inoculated immature embryos were placed, with their embryonic discs facing up, onto a coculture medium containing 2,4,5-T (2,4,5-trichlorophenoxyacetic acid), picloram (4-amino-3,5,6-trichloropicolinic acid), TIBA (2,3,5-triiodobenzoic acid) or dicamba at a concentration of 1.5 mg/l in IS-AS medium (Non-patent Publication No. 11; solidified with 8 g/l agarose) which had been prepared to exclude 2,4-D and contain 5 μM AgNO3 and 5 μM CuSO4. A control medium was prepared to contain 5 μM AgNO3 and 5 μM CuSO4 in LS-AS medium (solidified with 8 g/l agarose).
# The immature embryos cultured in the dark at 25° C. for 7 days were placed onto LSD1.5 medium (Non-patent Publication No. 11) containing 5 μM AgNO3, 5 mg/l phosphinothricin (PPT), 250 mg/l carbenicillin and 100 mg/l cefotaxime, and then cultured in the dark at 25° C. for 10 days. The immature embryos were transferred to the same medium, except that the PPT concentration was set to 10 mg/l, and cultured under the same conditions for 3 weeks. The grown calli were excised with a surgical knife, placed onto a fresh medium of the same composition, and cultured under the same conditions for 3 weeks. The grown calli were excised, placed onto LSZ medium (Non-patent Publication No. 11) containing 10 μM CuSO4 and 5 mg/l PPT, and cultured in the light at 25° C. for about 2 weeks. Along with determining the number of immature embryos which regenerated into whole plants, leaves of the regenerated plants were partially excised, immersed in 0.1 M phosphate buffer (pH 6.8) containing 0.1% Triton X-100 and allowed to stand at 37° C. for 1 hour. The phosphate buffer was removed and then replaced with another phosphate buffer containing 1.0 mM 5-bromo-4-chloro-3-indolyl-β-D-glucuronic acid (X-gluc) and 20% methanol. After incubation at 37° C. for 24 hours, GUS gene expression was examined.
# [2] = test system: immature embryos (variety: A188); test: Effect of dicamba and 2,4-D in coculture medium on transformation efficiency (drop inoculation); assay type: cell-based, Maize; conditions: for transformation efficiency: auxin 1.5 mg/l in coculture medium, Agrobacterium LBA4404 (U0009B) with hydroxyapatite, 25 to 26 immature embryos per test
# Text: as §1
# FIG. 3 is a graph showing the effect of auxin type in a coculture medium on transformation efficiency in maize (drop inoculation). 25 to 26 immature embryos were provided for each test. The vertical axis represents the transformation efficiency (calculated by dividing the number of GUS-positive plants obtained in each test by the number of inoculated immature embryos), while the horizontal axis represents the type of auxin contained in the coculture medium. The auxin concentration in the coculture medium was set to 1.5 mg/l for each test.
# The vector U0009B shown in FIG. 2 and SEQ ID NO: 1 was constructed by adding necessary elements to a vector having pSB11 (Non-patent Publication No. 27) as a skeletal structure. An inoculum (1 ml) of Agrobacterium strain LBA4404 (U0009B) prepared in the same manner as shown in Example 1 was supplemented with about 80 mg of hydroxyapatite (Bio-Rad). […] A control medium was prepared to contain 5 μM AgNO3 and 5 μM CuSO4 in LS-AS medium (solidified with 8 g/l agarose). After shaking with a vortex mixer to ensure a uniformly dispersed state of hydroxyapatite in the inoculum, 5 μl of the inoculum was added dropwise onto the immature embryos. After the inoculum added dropwise was dried, the immature embryos were transferred to another site on the same medium. After the culture container was sealed, coculture was performed in the dark at 25° C. for 7 days. The cocultured immature embryos were cultured in the same manner as shown in Example 1 to obtain regenerated plants, along with examining GUS gene expression in leaves of the regenerated plants.
# [3] = test system: maize; conditions: 15 μM dicamba vs 6.75 μM 2,4-D; media also differ in other components (silver nitrate); cited from earlier work
# [4] = test system: maize immature embryos; conditions: 15 μM dicamba vs 4.5 μM 2,4-D; cited from earlier work
Compound,"transformation efficiency relative to control (2,4-D), in words [1]",transformation efficiency [1] [%],transformation efficiency [2] [%],also measured
"O=C(O)COc1cc(Cl)c(Cl)cc1Cl [2,4,5-T, 2,4,5-trichlorophenoxyacetic acid]",lower than that of the control,–,–,–
"O=C(O)COc1ccc(Cl)cc1Cl [2,4-D, 2,4-dichlorophenoxyacetic acid]",–,20.6,11.5,–
"O=C(O)c1cc(I)cc(I)c1I [TIBA, 2,3,5-triiodobenzoic acid]",produced no transformed plant,–,–,–
"COc1c(Cl)ccc(Cl)c1C(=O)O [dicamba, 3,6-dichloro-o-anisic acid]",–,27.3,28.0,"increase in the transformation efficiency compared to the conventional method using 2,4-D ([1]; dicamba 1.5 mg/l in coculture medium, 27.3/20.6): 1.33 fold; increase in the transformation efficiency compared to the conventional method using 2,4-D ([2]; dicamba 1.5 mg/l, 28.0/11.5): 2.43 fold; transformation efficiency, dicamba medium vs 2,4-D medium [3]: higher; formation rate of calli having regeneration ability, compared to 2,4-D [4]: increased"
"Nc1c(Cl)c(Cl)nc(C(=O)O)c1Cl [picloram, 4-amino-3,5,6-trichloropicolinic acid]",lower than that of the control,–,–,–
